In publication PMC12261321, “Inhibitors of the Bacterioferritin Ferredoxin Complex Dysregulate Iron Homeostasis and Kill and Biofilm-Embedded Cells” (ACS Infectious Diseases, 2025):
Values after ≈ are worked out from the molar mass of the structure shown.

Experiments:
[1] = Determination of compound aqueous solubility in M63 media; format: physicochemical; conditions: in M63 media at 35 °C
Procedure: Determination of Compound Aqueous Solubility. Compound stocks (100 mM in DMSO) were prepared from […]
powder and then further diluted with DMSO to prepare 20 mM working solutions, which were diluted as needed […]
in DMSO. 15 µL o f the DMSO solution was then d iluted to a final volume o f 1.0 mL in M63 media. Six solutions […]
were prepared for each compound, each with a distinct concentration and 1.5% DMSO (v/v). 700 µL of each […]
compound solution was transferred to a polystyrene 48-well plate (VWR), followed by acquisition of UV-vis […]
spectra (300 to 700 nm) with the aid of an Epoch 2 microplate reader (B i o Te k ). […]
Following the acquisition of UV-vis spectra, each of the wells in the plate was inspected under a […]
microscope for evidence of precipitation. Evidence of precipitation at any given concentration was determined by observing a shift in the baseline of the UV-vis spectra relative to the blank (M63 media) and/or evidence of visual precipitation with the aid of a micros cope. […]

[2] = test system: P. aeruginosa PAO1; assay: Compound intracellular accumulation in P. aeruginosa PAO1; format: cell-based; conditions: cells treated with 30 µM compound
Procedure: Determination of Compound Intracellular Accumulation. These experiments were carri ed out as reported previously,16 with modifications. Starter cultures o f P. aeruginosa PAO1 or A. baumannii 5075 were centrifuged for 10 min at 3148 x g and 4 °C, resuspended in 5 mL of fresh LB, diluted to OD 600 = 0.03 in fresh LB media (250 mL), and then cultured at 35 °C and 220 rpm for 4 h. Th e resultant cul ture was diluted to OD600 = 0.4 in 250 mL LB and centrifuged at 4 °C and 3470 x g for 10 min. The cell pellet was resuspended in 20 mL of PBS and transfer red to a 50 mL conical tube, where it was centrifuged at 4 °C and 3148 x g for 20 min. The cell pellet was resuspended in 15 mL of PBS supplemented with 0.05% (w/v) HPMC and the suspension was divided equally into two new conical tubes. One of th e tubes was treated with 150 µL of DMSO (control), while the second tube was treated with 150 µL of compound in DMSO solution to produce a compound final concentration of 30 µM or 15 µM. The resultant mixtures were incubated at 37 °C and 220 rpm for 15 min, placed on ice for 1 min, and then centrifuged at 3148 x g rpm and 4 °C for 10 min. The cell pellet was resuspended in 7.5 mL of ice -cold PBS and vortexed (10 s, five t imes). 200 µL of the cell suspension was used to plate and enumerate viable cells, and 800 µL of the suspension was lay ered onto 700 µL of chilled silicon oil contained in 1.5 mL Eppendo rf tubes and then centrifuged at 4 °C ( 900 x g) for 10 min, then again at 16,200 x g for 5 min to allow pass ag e of the cell suspension through the silicon oil layer. The aqueous and oil layers were removed, and the cell pellet was washed twice in PBS (800 μ L), each time transferring the cell suspension to a new Eppendorf tube and then centrifuging at 16,200 x g. The cell pellet was lysed in 800 µL methanol by vortexing followed by 10 min incubationat room temperatur e. The lysate suspension was pelleted, the supernatant was transferred to a new Eppendorf tube and then placed into a vacuum concentrator (Eppendorf 5301 Vacufuge) to evaporate the methanol (4 h). The dried […]
cell lysate was resuspend ed in 600 µL of DMSO and centrifuged at 16,200 x g rpm for 5 min at room temperature.
The clarified supernatant was titrated with small volumes of 250 µM compound stock, measuring the fluorescen ce after the addition of each aliquot with the aid of a Cary Eclipse Fluorescence Spectrometer (Agilent). The compound concentration was determined utilizing the standard addition method,17 and compound accumulation is reported as nmol compound/1012 CFU/mL. […]
Eclipse) fluorescen ce sp ectrophotometer. The flu orescen ce intensity of th e treated sample (FI)Tr and that of the untreated control (FI)Un was normalized to the corresponding OD600 and the ratio (FI/OD600)Tr / (F I/ OD600)Un is […]
The determination for each of the compounds was carri ed out in 5 biological replicates.
Determination of Siderophores Secreted by A. baumannii . The chromo azurol S (CAS) solution was prepared as previously reported18 with some modifications. The blue dye solution (0.6 g/L CAS ( ACROS Organics), 100 μM FeCl3·6H2O, and 0.73 g/L hexadecyltrimethylammonium bromide (HDTMA, ACROS Organics) was autoclaved and stored in the dark. The MM9-PIPES buffer solution (3 g/L KH2PO4, 5 g/L NaCl, 10 g/L NH4C l, 32.24 g/L piperazine -1,4-bis-2- ethanesulfonic acid (PIPES , Sigma Aldrich), pH 6.75) was sterilized using a 0.22 µm syringe filter (VWR). Prior to every experimen t, blue dye solution (0.5 mL) was mixed with 4.5 mL of MM9-PIPES solution. An overnight culture of A. baumannii 5075 was diluted to OD600 = 0.0001 with modified M63 media (no citric acid) supplemented with 4 μ M Fe and transferred to a 96-well plate, wh ere it was cul tured for 20

[3] = target: T1, recombinant Pa BfrB (Pseudomonas aeruginosa, UniProt Q9HY79); assay: Dissociation constant (Kd), fluorescence quenching titration of apo Pa BfrB; format: binding, P. aeruginosa
T1 construct: made in house; host or cells: E. coli
Procedure: Measurement of Dissociation Constant (Kd) R ecombinant Pa BfrB was expressed in E. coli and purified as previously reported.19 Apo-BfrB (devoid of heme) was utilized for the measurements to prevent heme-driven fluorescence quenching. A 0.5 mL solution contai ning 0.01 µM apo Pa-BfrB in PBS (pH = 7.4) containing0.5% DMSO was plac ed into a 1 cm quartz cuvette wh ere it was titrated with aliq uots of compound dissolved in a 50% (v/v) PBS/DMSO solution. The fluorescence quenching brought by the addition of each aliquot was monitored with the aid of an Agilent Cary Fluorometer , with excitation at 280 nm, emission at 320- 470 nm, 10 x10 nm slit width, and an average of 5 scans per spectrum. Th e binding assay included at least 8 aliquots spanning from ~ 0.1 […]
A control titration was carried out by titrati ng compound into PBS buffer. The Kd was cal culated by fitting the data to equation S4, w here Fb is the fraction bound and Fmax is the fraction bound at saturating compound concentration.
FFbb = FFmmmmmm ? [ccccmmccccccmmcc ]? (S4) […]

[4] = M63 media with 1.5% DMSO, 35 °C, aqueous buffer, kinetic from dmso stock

T1 sequence (Q9HY79 whole entry): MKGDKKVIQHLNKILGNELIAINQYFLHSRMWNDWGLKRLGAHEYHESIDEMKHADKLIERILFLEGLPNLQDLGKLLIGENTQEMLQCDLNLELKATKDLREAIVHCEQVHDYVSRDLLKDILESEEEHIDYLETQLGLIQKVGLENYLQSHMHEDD

Compound	solubility at 4 h [1, 4] [µM]	Intracell. Accum, P. aeruginosa PAO1 [2] [nmol/1012 CFU]	Kd [3] [µM]	solubility at 4 h [1] [µM]
O=C1NC(=O)c2c(NCc3ccccc3O)cccc21 [Analog 11, 4-((2-Hydroxybenzyl)amino)isoindoline-1,3-dione]	200 (≈ 53.7 µg/mL)	–	–	–
O=C1NC(=O)c2c(NCc3ccc(Br)cc3O)cccc21 [EB-5-61]	–	197 ± 17	13 ± 3	60 (≈ 20.8 µg/mL)
Cc1ccc(CNc2cccc3c2C(=O)NC3=O)c(O)c1 [EB-5-69]	–	52 ± 2	45 ± 6	80 (≈ 22.6 µg/mL)
Cc1cccc(CNc2cccc3c2C(=O)NC3=O)c1O [EB-5-70]	–	–	17 ± 2	100 (≈ 28.2 µg/mL)
O=C1NC(=O)c2c(NCc3c(O)cccc3F)cccc21 [EB-5-71]	–	–	56 ± 10	150 (≈ 42.9 µg/mL)
O=C1NC(=O)c2c(NCc3c(O)cccc3Br)cccc21 [EB-5-72]	–	–	15 ± 3	60 (≈ 20.8 µg/mL)
O=C1NC(=O)c2c(NCc3cccc(Br)c3O)cccc21 [EB-5-73]	–	34 ± 9	7 ± 2	40 (≈ 13.9 µg/mL)
O=C1NC(=O)c2c(NCc3cccc(F)c3O)cccc21 [EB-5-80]	–	11 ± 3	49 ± 7	100 (≈ 28.6 µg/mL)
O=C1NC(=O)c2c(NCc3cc(F)ccc3O)cccc21 [JAG-5-7]	180 (≈ 51.5 µg/mL)	28 ± 10	24 ± 6	–
O=C1NC(=O)c2c(NCc3cc(Cl)ccc3O)cccc21 [KM-5-25, 4-((5-Chloro-2-hydroxybenzyl)amino)isoindoline-1,3-dione]	–	270 ± 48	10 ± 2	80 (≈ 24.2 µg/mL)
O=C1NC(=O)c2c(NCc3c(O)cccc3Cl)cccc21 [KM-5-29]	–	351 ± 25	18 ± 3	60 (≈ 18.2 µg/mL)
O=C1NC(=O)c2c(NCc3cccc(Cl)c3O)cccc21 [KM-5-30]	–	42 ± 1	11 ± 3	80 (≈ 24.2 µg/mL)
O=C1NC(=O)c2c(NCc3cc(Br)ccc3O)cccc21 [KM-5-35, 4-((5-Bromo-2-hydroxybenzyl)amino)isoindoline-1,3-dione]	–	360 ± 22	9 ± 3	60 (≈ 20.8 µg/mL)
O=C1NC(=O)c2c(NCc3cc(Cl)ccc3O)ccc(Br)c21 [SB-16-51]	–	–	13 ± 2	20 (≈ 7.63 µg/mL)
CC(C)(C)c1ccc(O)c(CNc2cccc3c2C(=O)NC3=O)c1 [SB-16-53]	30 (≈ 9.73 µg/mL)	–	1 ± 0.2	–
O=C1NC(=O)c2c(NCc3cc(F)ccc3O)ccc(Br)c21 [SB-16-67]	–	187 ± 59	7 ± 1	40 (≈ 14.6 µg/mL)
Cc1cc(Br)cc(CNc2cccc3c2C(=O)NC3=O)c1O [SB-16-106]	–	–	3 ± 1	30 (≈ 10.8 µg/mL)
O=C1NC(=O)c2c(NCc3cc(Br)c(F)cc3O)cccc21 [SB-16-112]	–	–	2 ± 0.6	30 (≈ 11 µg/mL)
O=C1NC(=O)c2c(NCc3cc(Br)cc(F)c3O)cccc21 [SB-16-118]	–	126 ± 40	4 ± 0.3	40 (≈ 14.6 µg/mL)
O=C1NC(=O)c2c(NCc3cc(Br)ccc3O)ccc(Cl)c21 [SB-16-124]	–	–	11 ± 1	20 (≈ 7.63 µg/mL)
O=C1NC(=O)c2c(NCc3cc(Br)cc(O)c3O)cccc21 [SB-16-136]	–	–	7 ± 1	60 (≈ 21.8 µg/mL)
O=C1NC(=O)c2c(NCc3cc(Br)c(O)cc3O)cccc21 [SB-16-137]	–	33 ± 1	9 ± 0.4	80 (≈ 29.1 µg/mL)
Cc1cc(Cl)cc(CNc2cccc3c2C(=O)NC3=O)c1O [SB-16-156]	–	–	7 ± 2	40 (≈ 12.7 µg/mL)
O=C1NC(=O)c2c(NCc3cc(Cl)c(O)cc3O)cccc21 [SB-16-160]	–	–	77 ± 10	80 (≈ 25.5 µg/mL)
O=C1NC(=O)c2c(NCc3cc(Cl)cc(O)c3O)cccc21 [SB-16-168]	40 (≈ 12.7 µg/mL)	–	12 ± 2	–
Cc1cc(CNc2cccc3c2C(=O)NC3=O)c(O)cc1Br [SB-16-183]	–	–	3 ± 0.6	20 (≈ 7.22 µg/mL)
O=C1NC(=O)c2c(NCc3cc(Br)cc(O)c3O)ccc(Br)c21 [SB-16-250]	–	–	15 ± 3	20 (≈ 8.84 µg/mL)
O=C1NC(=O)c2c(NCc3ccc4c(c3)COC4)cccc21 [SB-17-80]	–	–	11 ± 3	20 (≈ 5.89 µg/mL)
O=C1NC(=O)c2c(NCc3cccc4c3CCN4)cccc21 [SB-17-140]	100 (≈ 29.3 µg/mL)	–	37 ± 1	–
